# Source: ChEMBL document CHEMBL1201862, “PubChem BioAssay data set” (2004)
# Calls of active or inactive are those of the source.
# Tests used:
# [1] = biological target: T1, Nuclear receptor subfamily 0 group B member 1 (Homo sapiens, UniProt P51843); type: functional, cell-based;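 further: HEK293T cells transfected with SF-1 and DAX-1 plus StAR promoter luciferase reporter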
# T1 sequence (P51843 whole entry): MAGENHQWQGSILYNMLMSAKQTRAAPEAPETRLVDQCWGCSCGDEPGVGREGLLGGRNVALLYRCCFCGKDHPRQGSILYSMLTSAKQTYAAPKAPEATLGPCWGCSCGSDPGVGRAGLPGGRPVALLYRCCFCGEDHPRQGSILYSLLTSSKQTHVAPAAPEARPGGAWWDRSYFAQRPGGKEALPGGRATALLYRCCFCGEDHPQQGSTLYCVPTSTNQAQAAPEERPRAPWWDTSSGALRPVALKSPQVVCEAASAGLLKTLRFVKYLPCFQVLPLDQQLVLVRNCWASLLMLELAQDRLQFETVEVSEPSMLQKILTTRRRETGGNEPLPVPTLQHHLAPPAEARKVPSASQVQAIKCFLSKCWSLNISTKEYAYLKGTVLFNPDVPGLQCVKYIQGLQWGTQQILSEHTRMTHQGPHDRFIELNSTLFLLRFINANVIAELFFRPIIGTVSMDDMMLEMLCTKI
# [2] = cells; type: functional, cell-based
# [3] = biological target: Albumin (Bos taurus, UniProt P02769); experiment: Counterscreen for inhibitors of T-cell receptor (TCR)-CD3 interaction: Fluorescence-based biochemical high throughput dose response assay to identify inhibitors of T-cell receptor (TCR)-CD3 interaction using a TAMRA-labeled BSA probe.; type: functional
# [4] = system: Streptococcus; experiment: Group A Streptococcus viability loss, dose response, counter-screen for streptokinase expression inhibitor project, luminescence, BacTiterGlo (AID 1915); type: functional, organism-based;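 further: potency for reduction of bacterial viability or growth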
# [5] = system: Streptococcus sp. 'group A'; experiment: growth inhibition of control SK(-) GAS strain, dose response, counter-screen for streptokinase expression inhibitor project, luminescence, kanamycin, BacTiterGlo, confirmation (AID 1900); type: functional, organism-based
# [6] = biological target: T2, Streptokinase A (Streptococcus pyogenes serotype M1, UniProt P10520); experiment: S. pyogenes streptokinase expression inhibitors, potency, dose response, plasminogen activation absorbance, OD405 (AID 1914); type: functional, Streptococcus pyogenes M1 GAS;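 further: secreted streptokinase activity via plasminogen activation per viability signal from cell pellet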
# T2 sequence (P10520 whole entry): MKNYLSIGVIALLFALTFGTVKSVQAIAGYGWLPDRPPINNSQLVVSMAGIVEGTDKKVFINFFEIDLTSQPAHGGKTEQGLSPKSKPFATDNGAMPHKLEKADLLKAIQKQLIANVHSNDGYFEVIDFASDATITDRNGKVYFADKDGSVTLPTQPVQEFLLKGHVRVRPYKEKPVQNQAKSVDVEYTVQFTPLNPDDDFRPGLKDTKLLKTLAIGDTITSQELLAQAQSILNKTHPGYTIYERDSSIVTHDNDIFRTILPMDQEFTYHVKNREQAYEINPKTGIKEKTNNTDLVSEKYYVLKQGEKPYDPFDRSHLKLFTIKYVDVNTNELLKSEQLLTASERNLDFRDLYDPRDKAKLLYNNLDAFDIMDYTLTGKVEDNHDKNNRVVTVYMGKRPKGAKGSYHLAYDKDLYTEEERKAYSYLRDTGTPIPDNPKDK
# [7] = biological target: T3, Fructose-bisphosphate aldolase (Mycobacterium tuberculosis, UniProt P9WQA3); experiment: Fluorescence-based biochemical high throughput dose response assay for inhibitors of the fructose-bisphosphate aldolase (FBA) of M. tuberculosis.; type: functional
# T3 sequence (P9WQA3 whole entry): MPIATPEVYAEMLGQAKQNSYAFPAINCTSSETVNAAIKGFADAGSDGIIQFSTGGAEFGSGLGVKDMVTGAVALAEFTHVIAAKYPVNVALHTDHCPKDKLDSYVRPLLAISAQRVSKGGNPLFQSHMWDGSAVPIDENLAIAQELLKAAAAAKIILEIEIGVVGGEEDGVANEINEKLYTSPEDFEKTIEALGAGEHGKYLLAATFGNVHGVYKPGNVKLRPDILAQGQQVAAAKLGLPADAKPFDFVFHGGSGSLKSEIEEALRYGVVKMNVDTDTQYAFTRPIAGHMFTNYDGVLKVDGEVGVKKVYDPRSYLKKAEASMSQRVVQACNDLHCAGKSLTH
# [8] = inhibitors of SNCA 5'UTR-driven reporter translation, confirmation, H4 neuroglioma cells, luminescence (AID 1988); type: functional, cell-based
# [9] = biological target: T4, DNA repair protein RAD52 homolog (Homo sapiens, UniProt P43351); type: functional, biochemical
# T4 sequence (P43351 whole entry): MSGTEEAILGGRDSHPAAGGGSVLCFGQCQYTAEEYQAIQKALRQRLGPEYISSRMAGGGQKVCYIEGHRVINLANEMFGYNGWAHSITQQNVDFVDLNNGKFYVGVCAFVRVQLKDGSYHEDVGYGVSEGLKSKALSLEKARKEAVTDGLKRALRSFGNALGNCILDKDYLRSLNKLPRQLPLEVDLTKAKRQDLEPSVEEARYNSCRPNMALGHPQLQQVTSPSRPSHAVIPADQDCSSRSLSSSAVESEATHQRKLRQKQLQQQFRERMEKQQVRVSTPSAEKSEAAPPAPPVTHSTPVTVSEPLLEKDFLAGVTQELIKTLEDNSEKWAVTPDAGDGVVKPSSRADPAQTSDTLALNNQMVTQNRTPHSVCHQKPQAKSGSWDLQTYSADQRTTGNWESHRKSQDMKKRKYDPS
# [10] = inhibitors of firefly luciferase expression or activity, dose response, H4 neuroglioma cells, luminescence (AID 1990); type: functional, cell-based
# [11] = Counterscreen for activators of the function of SWI/SNF related, matrix associated, actin dependent regulator of chromatin, subfamily a, member 2 (SMARCA2, BRM): Luminescence-based cell-based high throughput dose response assay to identify non-selective compounds using the VP16 reporter assay.; type: functional
# [12] = control 3'UTR Renilla luciferase suppression, dose response, counter-screen for Shn3 inhibitor project, cell-based, Clone20-Shn3RL, cherry-picked (AID 624133); type: functional
# [13] = HepG2 cell cytotoxicity, dose response, cytotoxicity control for Shn3 inhibitor project, CellTiter-Glo, cherry-picked (AID 624134); type: functional, cell-based
# [14] = biological target: SWI/SNF-related matrix-associated actin-dependent regulator of chromatin subfamily A member 2 (Homo sapiens, UniProt P51531); experiment: Luminescence-based cell-based high throughput dose response assay to identify activators of the function of SWI/SNF related, matrix associated, actin dependent regulator of chromatin, subfamily a, member 2 (SMARCA2, BRM).; type: functional
# [15] = Shn3 3'UTR reporter inhibitors, dose response, cell-based, Clone20 osteoblasts, firefly luciferase, cherry-picked (AID 624132); type: functional;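 further: firefly luciferase luminescence from reporter carrying the Shn3 3'UTR in osteoblasts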
# [16] = Luminescence Cell-Based Dose Response HTS to Identify Inhibitors of 5'UTR Stem-Loop Driven Prion Protein mRNA Translation in H4 Neuroglioblastoma Cells. [Related pubchem assays: 1827 (Project Summary), 1813 (Primary HTS)]; type: functional
# [17] = Fluorescence-based cell-based high throughput dose response assay for inhibitors of the interaction of nucleotide-binding oligomerization domain containing 2 (NOD2) and the receptor-interacting serine-threonine kinase 2 (RIPK2).; type: functional; conditions: Homo sapiens
# [18] = biological target: T5, Methionyl-tRNA synthetase, putative (Trypanosoma brucei brucei, UniProt Q38C91); type: functional, Trypanosoma brucei brucei strain 927/4 GUTat10.1
# T5 sequence (Q38C91 whole entry): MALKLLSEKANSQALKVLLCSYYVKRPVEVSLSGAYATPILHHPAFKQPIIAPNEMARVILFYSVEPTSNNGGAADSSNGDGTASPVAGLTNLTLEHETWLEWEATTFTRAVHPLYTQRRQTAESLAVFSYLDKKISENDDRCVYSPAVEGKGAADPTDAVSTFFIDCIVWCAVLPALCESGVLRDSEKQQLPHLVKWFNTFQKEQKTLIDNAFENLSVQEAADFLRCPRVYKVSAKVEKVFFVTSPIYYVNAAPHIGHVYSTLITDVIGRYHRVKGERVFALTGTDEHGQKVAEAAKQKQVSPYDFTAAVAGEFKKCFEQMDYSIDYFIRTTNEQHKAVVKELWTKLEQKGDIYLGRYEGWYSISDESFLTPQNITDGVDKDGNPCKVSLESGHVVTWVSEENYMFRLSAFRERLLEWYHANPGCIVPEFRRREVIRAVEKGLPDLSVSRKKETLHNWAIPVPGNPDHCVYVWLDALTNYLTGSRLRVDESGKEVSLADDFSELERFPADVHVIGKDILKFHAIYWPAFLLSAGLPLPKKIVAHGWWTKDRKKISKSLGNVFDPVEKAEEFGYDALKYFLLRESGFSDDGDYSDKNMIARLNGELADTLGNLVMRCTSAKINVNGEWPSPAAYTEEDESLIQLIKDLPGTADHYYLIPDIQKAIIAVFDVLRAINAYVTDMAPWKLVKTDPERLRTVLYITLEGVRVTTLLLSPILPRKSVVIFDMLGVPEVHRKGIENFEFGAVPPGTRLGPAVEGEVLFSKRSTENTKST
# [19] = Counterscreen for inhibitors of Trypanosoma brucei methionyl tRNA synthetase (MetRS): Luminescence-based cell-based high throughput dose response assay to identify compounds that are cytotoxic to Jurkat human T lymphocyte cells.; type: functional
# [20] = biological target: T6, Corticotropin-releasing factor receptor 2/Corticotropin-releasing factor-binding protein (Homo sapiens, UniProt P24387+Q13324); experiment: Dose Response confirmation of uHTS hits for small molecule antagonists of the CRF-binding protein and CRF-R2 receptor complex.; type: functional; conditions: read-out: IC50_Mean
# T6 sequence (Q13324 whole entry): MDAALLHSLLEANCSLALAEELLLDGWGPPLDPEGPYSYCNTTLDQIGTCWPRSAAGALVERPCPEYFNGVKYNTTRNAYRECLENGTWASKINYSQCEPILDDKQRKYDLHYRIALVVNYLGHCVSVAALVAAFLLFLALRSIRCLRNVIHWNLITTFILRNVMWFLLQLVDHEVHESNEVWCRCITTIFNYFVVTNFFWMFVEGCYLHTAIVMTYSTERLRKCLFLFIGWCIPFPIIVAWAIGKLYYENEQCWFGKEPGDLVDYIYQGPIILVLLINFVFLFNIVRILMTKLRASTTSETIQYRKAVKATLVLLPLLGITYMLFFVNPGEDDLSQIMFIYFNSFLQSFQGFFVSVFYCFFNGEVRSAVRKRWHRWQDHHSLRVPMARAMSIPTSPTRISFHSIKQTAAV
# T6 sequence (P24387 whole entry): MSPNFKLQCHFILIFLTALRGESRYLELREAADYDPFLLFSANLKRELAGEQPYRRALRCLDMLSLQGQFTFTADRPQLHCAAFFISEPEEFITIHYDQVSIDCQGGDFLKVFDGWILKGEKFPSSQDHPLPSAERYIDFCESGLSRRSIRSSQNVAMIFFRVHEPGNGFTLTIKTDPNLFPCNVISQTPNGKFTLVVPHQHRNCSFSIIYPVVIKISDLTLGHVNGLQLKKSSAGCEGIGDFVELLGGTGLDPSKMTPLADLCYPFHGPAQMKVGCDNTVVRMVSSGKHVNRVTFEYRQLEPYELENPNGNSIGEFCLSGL
# [21] = biological target: T7, Fatty acid synthase (Homo sapiens, UniProt P49327); experiment: FAS thioesterase domain inhibitors, dose response, biochemical, kinetic fluorescence intensity (AID 624326); type: functional;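 further: rate of fluorescence rise from hydrolysis of a fluorogenic O-methyl fluorescein ester substrate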
# [22] = biological target: T5, Methionyl-tRNA synthetase, putative; type: functional, Trypanosoma brucei brucei strain 927/4 GUTat10.1; remark: listed apart in the source
# [23] = biological target: T7, Fatty acid synthase; experiment: FAS thioesterase domain inhibitors, dose response, biochemical, endpoint fluorescence intensity, uHTS hits (AID 624327); type: functional;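 further: fluorescence from hydrolysis of an O-methyl fluorescein acyl ester substrate by the enzyme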
# [24] = biological target: T6, Corticotropin-releasing factor receptor 2/Corticotropin-releasing factor-binding protein; experiment: activators of CRF receptor 2 with binding protein – uHTS hits, confirmation (AID 602473); type: functional; conditions: read-out: EC50_Mean
# T7 sequence (P49327 whole entry, the tested form may be a part): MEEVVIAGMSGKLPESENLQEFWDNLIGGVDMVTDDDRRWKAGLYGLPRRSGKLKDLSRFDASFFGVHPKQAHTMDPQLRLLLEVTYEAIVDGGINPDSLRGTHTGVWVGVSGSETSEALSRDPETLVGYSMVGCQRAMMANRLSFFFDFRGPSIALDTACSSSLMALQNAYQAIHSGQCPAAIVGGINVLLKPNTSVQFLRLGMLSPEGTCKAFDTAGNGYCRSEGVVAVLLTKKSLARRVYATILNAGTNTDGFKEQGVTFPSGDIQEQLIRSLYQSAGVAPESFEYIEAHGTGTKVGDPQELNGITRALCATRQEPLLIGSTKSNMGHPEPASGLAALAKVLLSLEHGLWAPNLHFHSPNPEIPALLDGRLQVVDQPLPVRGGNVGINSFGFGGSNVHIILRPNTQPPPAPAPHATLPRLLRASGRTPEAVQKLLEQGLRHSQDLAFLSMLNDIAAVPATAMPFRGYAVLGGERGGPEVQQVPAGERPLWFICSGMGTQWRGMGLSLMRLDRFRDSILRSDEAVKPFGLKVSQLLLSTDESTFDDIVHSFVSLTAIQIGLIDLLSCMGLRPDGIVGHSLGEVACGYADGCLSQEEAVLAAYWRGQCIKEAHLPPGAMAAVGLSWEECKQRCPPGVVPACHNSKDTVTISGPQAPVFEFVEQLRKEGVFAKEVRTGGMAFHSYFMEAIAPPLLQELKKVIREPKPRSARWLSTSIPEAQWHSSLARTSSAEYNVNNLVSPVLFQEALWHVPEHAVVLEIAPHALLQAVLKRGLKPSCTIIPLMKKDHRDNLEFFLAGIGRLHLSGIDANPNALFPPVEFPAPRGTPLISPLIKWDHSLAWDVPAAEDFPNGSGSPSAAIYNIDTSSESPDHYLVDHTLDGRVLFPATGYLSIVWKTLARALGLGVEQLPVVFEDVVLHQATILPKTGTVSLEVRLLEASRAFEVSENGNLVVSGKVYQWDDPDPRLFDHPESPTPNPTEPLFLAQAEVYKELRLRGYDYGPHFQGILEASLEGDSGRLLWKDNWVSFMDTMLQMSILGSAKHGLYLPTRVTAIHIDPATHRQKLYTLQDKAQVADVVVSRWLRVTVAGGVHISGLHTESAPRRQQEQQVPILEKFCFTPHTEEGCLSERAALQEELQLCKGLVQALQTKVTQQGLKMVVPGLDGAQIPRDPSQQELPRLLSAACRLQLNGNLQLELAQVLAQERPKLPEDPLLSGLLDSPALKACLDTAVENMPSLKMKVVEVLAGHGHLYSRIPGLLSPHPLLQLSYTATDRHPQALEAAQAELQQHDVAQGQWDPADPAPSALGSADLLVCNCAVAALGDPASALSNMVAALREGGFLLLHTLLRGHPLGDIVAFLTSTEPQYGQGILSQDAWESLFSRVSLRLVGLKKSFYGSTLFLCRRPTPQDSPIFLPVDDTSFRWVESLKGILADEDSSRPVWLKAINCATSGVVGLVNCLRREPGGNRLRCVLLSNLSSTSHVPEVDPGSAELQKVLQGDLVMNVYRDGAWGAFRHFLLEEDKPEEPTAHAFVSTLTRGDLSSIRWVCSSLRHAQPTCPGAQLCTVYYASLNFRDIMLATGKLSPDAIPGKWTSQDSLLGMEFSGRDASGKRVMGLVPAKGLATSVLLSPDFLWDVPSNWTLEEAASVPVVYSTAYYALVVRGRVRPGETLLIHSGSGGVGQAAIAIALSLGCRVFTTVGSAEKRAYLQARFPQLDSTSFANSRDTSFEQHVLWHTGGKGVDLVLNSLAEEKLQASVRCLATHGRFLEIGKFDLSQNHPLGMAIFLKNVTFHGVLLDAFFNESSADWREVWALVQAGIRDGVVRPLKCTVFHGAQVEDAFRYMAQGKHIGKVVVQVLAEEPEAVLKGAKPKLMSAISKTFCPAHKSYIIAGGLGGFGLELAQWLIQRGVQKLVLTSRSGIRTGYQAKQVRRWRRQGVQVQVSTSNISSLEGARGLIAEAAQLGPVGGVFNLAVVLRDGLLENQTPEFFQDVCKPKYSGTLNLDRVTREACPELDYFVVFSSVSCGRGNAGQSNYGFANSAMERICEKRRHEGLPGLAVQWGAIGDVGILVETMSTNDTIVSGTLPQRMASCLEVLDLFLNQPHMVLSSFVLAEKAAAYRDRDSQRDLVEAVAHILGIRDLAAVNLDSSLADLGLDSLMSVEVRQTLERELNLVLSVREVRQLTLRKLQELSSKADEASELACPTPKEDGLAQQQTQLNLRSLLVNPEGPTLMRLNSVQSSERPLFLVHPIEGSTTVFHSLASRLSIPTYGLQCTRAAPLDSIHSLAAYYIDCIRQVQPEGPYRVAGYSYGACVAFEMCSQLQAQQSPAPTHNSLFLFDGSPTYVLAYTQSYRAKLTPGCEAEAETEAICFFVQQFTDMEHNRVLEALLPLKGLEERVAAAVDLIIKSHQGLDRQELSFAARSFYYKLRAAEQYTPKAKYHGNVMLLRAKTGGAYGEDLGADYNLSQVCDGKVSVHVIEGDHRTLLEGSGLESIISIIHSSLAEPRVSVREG
# SWI/SNF-related matrix-associated actin-dependent regulator of chromatin subfamily A member 2, sequence (P51531 whole entry): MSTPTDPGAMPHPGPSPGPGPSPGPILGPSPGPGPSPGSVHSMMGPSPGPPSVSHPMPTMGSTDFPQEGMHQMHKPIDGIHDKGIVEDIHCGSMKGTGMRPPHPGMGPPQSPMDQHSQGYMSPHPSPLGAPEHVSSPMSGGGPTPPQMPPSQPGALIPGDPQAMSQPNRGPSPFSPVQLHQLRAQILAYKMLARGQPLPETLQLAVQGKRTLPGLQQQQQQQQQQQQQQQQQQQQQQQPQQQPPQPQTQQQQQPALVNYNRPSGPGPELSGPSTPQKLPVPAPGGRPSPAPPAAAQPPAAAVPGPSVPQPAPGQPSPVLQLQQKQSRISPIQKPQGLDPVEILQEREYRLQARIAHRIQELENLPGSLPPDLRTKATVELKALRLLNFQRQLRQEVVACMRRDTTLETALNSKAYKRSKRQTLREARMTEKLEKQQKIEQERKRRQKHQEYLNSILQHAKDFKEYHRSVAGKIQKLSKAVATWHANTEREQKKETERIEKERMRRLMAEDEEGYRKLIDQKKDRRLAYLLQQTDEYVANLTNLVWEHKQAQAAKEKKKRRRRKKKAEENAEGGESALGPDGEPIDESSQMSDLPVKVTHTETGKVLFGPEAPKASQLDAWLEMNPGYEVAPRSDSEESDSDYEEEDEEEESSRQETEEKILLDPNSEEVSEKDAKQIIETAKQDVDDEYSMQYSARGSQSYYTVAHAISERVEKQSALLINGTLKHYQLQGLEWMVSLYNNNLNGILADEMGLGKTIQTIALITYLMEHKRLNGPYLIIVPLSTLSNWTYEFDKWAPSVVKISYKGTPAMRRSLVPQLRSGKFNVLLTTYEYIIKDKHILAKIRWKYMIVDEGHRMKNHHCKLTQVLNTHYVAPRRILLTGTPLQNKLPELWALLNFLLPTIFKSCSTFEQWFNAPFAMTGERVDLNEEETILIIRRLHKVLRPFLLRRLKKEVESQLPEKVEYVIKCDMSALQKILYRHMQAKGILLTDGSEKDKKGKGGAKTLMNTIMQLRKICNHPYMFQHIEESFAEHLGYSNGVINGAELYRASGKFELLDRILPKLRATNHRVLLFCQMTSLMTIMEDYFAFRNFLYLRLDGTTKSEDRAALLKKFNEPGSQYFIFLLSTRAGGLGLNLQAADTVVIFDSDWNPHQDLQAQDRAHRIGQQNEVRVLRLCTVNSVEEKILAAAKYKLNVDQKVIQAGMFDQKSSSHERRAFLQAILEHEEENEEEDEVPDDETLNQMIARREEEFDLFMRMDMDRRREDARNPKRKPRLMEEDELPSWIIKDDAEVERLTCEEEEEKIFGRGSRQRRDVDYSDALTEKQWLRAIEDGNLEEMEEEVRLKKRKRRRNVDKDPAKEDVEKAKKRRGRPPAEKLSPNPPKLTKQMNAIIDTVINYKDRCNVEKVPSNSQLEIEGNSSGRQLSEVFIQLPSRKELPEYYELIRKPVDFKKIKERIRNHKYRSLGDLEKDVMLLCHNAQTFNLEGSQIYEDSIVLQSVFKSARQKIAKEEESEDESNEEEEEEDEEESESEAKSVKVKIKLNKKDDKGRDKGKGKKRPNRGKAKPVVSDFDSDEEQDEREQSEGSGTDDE
# Albumin, sequence (P02769 whole entry): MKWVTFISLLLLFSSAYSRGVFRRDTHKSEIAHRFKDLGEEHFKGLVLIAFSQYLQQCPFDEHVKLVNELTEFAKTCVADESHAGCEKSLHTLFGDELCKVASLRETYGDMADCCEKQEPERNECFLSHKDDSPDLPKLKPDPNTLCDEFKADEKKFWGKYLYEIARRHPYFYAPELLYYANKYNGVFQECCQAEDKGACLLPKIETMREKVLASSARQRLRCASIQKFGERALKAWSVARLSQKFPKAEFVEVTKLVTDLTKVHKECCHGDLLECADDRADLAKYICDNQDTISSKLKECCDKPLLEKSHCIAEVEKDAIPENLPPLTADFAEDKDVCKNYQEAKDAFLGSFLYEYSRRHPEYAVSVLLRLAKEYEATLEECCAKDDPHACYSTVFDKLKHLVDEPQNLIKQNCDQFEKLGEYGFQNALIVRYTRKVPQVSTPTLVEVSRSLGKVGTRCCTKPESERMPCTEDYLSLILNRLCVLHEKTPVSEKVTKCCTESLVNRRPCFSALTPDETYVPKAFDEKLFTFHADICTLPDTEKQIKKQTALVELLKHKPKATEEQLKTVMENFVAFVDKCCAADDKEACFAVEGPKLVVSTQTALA
smiles,measurement,setting,value
COc1ccc(C(=O)Nc2cccc(OC)c2)cc1,IC50,[1],> 67.6 µM (inactive)
same,IC50,[2],> 67.6 µM (inactive)
CCCCCC(=O)NC(=S)NC1C2CC3CC(C2)CC1C3 (stereo not drawn),IC50,[3],> 94.1 µM (inactive)
same,EC50,[4],27.9 µM (active)
same,EC50,[5],3.42 µM (active)
same,EC50,[6],11.5 µM (active)
N#Cc1c(-c2ccc(Br)cc2)cc(-c2cccnc2)nc1N,IC50,[7],1.2 µM (active)
Cc1cccnc1NC(=O)COc1ccc2c(c1)CCC2,IC50,[1],> 67.6 µM (inactive)
same,IC50,[2],> 67.6 µM (inactive)
Cc1ccccc1NC(=O)Cn1c(C)nc2ccc(N)cc2c1=O,IC50,[7],> 1.11 µM (active)
COc1ccc(OC)c2sc(N(CCN(C)C)C(=O)/C=C/c3cccs3)nc12,EC50,[8],6.88 µM (active)
same,AC50,[9],10.6 µM (active)
same,EC50,[10],8.13 µM (active)
same,EC50,[11],> 91.1 µM (inactive)
same,AC50,[12],25.8 µM (active)
same,AC50,[13],19.1 µM (active)
same,EC50,[14],> 91.1 µM (inactive)
same,AC50,[15],12.8 µM (active)
same,EC50,[16],3.18 µM (active)
same,IC50,[17],13.3 µM (inactive)
COCCn1c(C)cc(C(=O)COC(=O)c2ccc(Cl)c(S(N)(=O)=O)c2)c1C,IC50,[1],> 67.5 µM (inactive)
same,IC50,[2],> 67.5 µM (inactive)
O=C(C/C=N\OCc1ccc([N+](=O)[O-])cc1)Nc1ccc(Br)cc1,IC50,[18],1.25 µM (active)
same,IC50,[19],83.3 µM (inactive)
same,IC50,[20],> 47.1 µM (inactive)
same,IC50,[21],7.6 µM (active)
same,IC50,[22],0.784 µM (active)
same,IC50,[23],10.1 µM (active)
same,EC50,[24],> 53 µM (inactive)
N#C/C(=N\Nc1cc(Cl)cc(Cl)c1)c1nnc2n1CCCCC2,IC50,[18],27.4 µM (inactive)
same,IC50,[19],83.3 µM (inactive)
same,IC50,[22],16.6 µM (inactive)
Oc1ccccc1/C=N/c1cccc2ccccc12,IC50,[7],> 3.33 µM (active)
